Results reported in the NIST ThermoML archive (doi:10.1016/j.jct.2016.04.021).
Numbers after ± are expanded uncertainties.

Settings: for viscosity / mass density: 101.33 kPa, Liquid; for viscosity: Concentric cylinders viscometry; for mass density: Vibrating tube method; for Glass transition temperature: DSC; for Normal melting temperature: Crystal, DTA

Row | SMILES | viscosity (293.15 K) | mass density (293.15 K) | viscosity (298.15 K) | mass density (298.15 K) | viscosity (303.15 K) | mass density (303.15 K) | viscosity (308.15 K) | mass density (308.15 K) | viscosity (313.15 K) | mass density (313.15 K) | viscosity (318.15 K) | mass density (318.15 K) | viscosity (323.15 K) | mass density (323.15 K) | viscosity (328.15 K) | mass density (328.15 K) | viscosity (333.15 K) | mass density (333.15 K) | viscosity (338.15 K) | mass density (338.15 K) | further results
1 | CCCCCCCC/C=C\CCCCCCCC(=O)[O-].CCCCCC[N+](CCCCCC)(CCCCCC)CCCCCC [tetrahexylammonium oleate] | 2509.9 ± 200 mPa·s | 889.9 ± 5.5 kg/m3 | 1623.7 ± 120 mPa·s | 886.9 ± 5.5 kg/m3 | 1086.6 ± 79 mPa·s | 883.9 ± 5.5 kg/m3 | 749 ± 53 mPa·s | 880.9 ± 5.5 kg/m3 | 530.9 ± 36 mPa·s | 877.8 ± 5.4 kg/m3 | 384.9 ± 26 mPa·s | 874.8 ± 5.4 kg/m3 | 285.3 ± 19 mPa·s | 871.8 ± 5.4 kg/m3 | 215.5 ± 14 mPa·s | 868.8 ± 5.4 kg/m3 | 165.4 ± 10 mPa·s | 865.8 ± 5.4 kg/m3 | 129.5 ± 8.2 mPa·s | 862.9 ± 5.3 kg/m3 | viscosity (343.15 K): 102.9 ± 6.4 mPa·s; mass density (343.15 K): 859.9 ± 5.3 kg/m3; viscosity (348.15 K): 82.8 ± 5.1 mPa·s; mass density (348.15 K): 857 ± 5.3 kg/m3; viscosity (353.15 K): 67.5 ± 4.2 mPa·s; mass density (353.15 K): 854 ± 5.3 kg/m3; viscosity (358.15 K): 55.5 ± 3.4 mPa·s; mass density (358.15 K): 851 ± 5.3 kg/m3; viscosity (363.15 K): 45.5 ± 2.8 mPa·s; mass density (363.15 K): 847.9 ± 5.3 kg/m3; Glass transition temperature: -83.2 ± 0.8 °C
2 | CCCCCCCC/C=C\CCCCCCCC(=O)[O-].CCCCCCCC[N+](C)(CCCCCCCC)CCCCCCCC [methyltrioctylammonium oleate] | 2934 ± 240 mPa·s | 890.5 ± 7.6 kg/m3 | 1971.4 ± 150 mPa·s | 887.5 ± 7.5 kg/m3 | 1354.6 ± 100 mPa·s | 884.5 ± 7.5 kg/m3 | 957.7 ± 70 mPa·s | 881.5 ± 7.5 kg/m3 | 692.7 ± 49 mPa·s | 878.5 ± 7.4 kg/m3 | 511.3 ± 36 mPa·s | 875.5 ± 7.4 kg/m3 | 384.4 ± 26 mPa·s | 872.5 ± 7.4 kg/m3 | 293.8 ± 20 mPa·s | 869.5 ± 7.4 kg/m3 | 227.9 ± 15 mPa·s | 866.6 ± 7.3 kg/m3 | 179.2 ± 12 mPa·s | 863.6 ± 7.3 kg/m3 | viscosity (343.15 K): 142.7 ± 9.2 mPa·s; mass density (343.15 K): 860.7 ± 7.3 kg/m3; viscosity (348.15 K): 114.3 ± 7.3 mPa·s; mass density (348.15 K): 857.8 ± 7.3 kg/m3; viscosity (353.15 K): 92.3 ± 5.9 mPa·s; mass density (353.15 K): 854.9 ± 7.2 kg/m3; viscosity (358.15 K): 74.9 ± 4.8 mPa·s; mass density (358.15 K): 852 ± 7.2 kg/m3; viscosity (363.15 K): 61.8 ± 3.9 mPa·s; mass density (363.15 K): 849.1 ± 7.2 kg/m3; Normal melting temperature: -5.9 ± 0.5 °C; Glass transition temperature: -56.3 ± 1.2 °C
3 | CCCCCCCC/C=C\CCCCCCCC(=O)[O-].CCCCCCCC[N+](CCCCCCCC)(CCCCCCCC)CCCCCCCC [tetraoctylammonium oleate] | 1689.3 ± 130 mPa·s | 878.4 ± 7.4 kg/m3 | 1153.4 ± 86 mPa·s | 875.3 ± 7.4 kg/m3 | 804.8 ± 58 mPa·s | 872.3 ± 7.4 kg/m3 | 575.4 ± 40 mPa·s | 869.2 ± 7.4 kg/m3 | 420.8 ± 29 mPa·s | 866.1 ± 7.3 kg/m3 | 314.4 ± 21 mPa·s | 863.1 ± 7.3 kg/m3 | 239.4 ± 16 mPa·s | 860.1 ± 7.3 kg/m3 | 185.4 ± 12 mPa·s | 857.1 ± 7.2 kg/m3 | 146.2 ± 9.5 mPa·s | 854.1 ± 7.2 kg/m3 | 117 ± 7.5 mPa·s | 851.1 ± 7.2 kg/m3 | viscosity (343.15 K): 94.9 ± 6.1 mPa·s; mass density (343.15 K): 848.2 ± 7.2 kg/m3; viscosity (348.15 K): 77.9 ± 4.9 mPa·s; mass density (348.15 K): 845.2 ± 7.1 kg/m3; viscosity (353.15 K): 64.1 ± 4.1 mPa·s; mass density (353.15 K): 842.2 ± 7.1 kg/m3; viscosity (358.15 K): 53.5 ± 3.4 mPa·s; mass density (358.15 K): 839.2 ± 7.1 kg/m3; viscosity (363.15 K): 44.3 ± 2.8 mPa·s; mass density (363.15 K): 836.1 ± 7.1 kg/m3; Normal melting temperature: -29.5 ± 0.7 °C; Glass transition temperature: -79.8 ± 1.5 °C
4 | CCCCC(CC)CCC(=O)[O-].CCCCCCCC[N+](C)(CCCCCCCC)CCCCCCCC [methyltrioctylammonium 4-ethyloctanoate] | 5743.4 ± 800 mPa·s | 893.1 ± 18 kg/m3 | 3733.4 ± 510 mPa·s | 890.1 ± 18 kg/m3 | 2468.1 ± 330 mPa·s | 887.1 ± 18 kg/m3 | 1672.3 ± 220 mPa·s | 884 ± 18 kg/m3 | 1159.3 ± 150 mPa·s | 881 ± 18 kg/m3 | 820.4 ± 110 mPa·s | 877.9 ± 18 kg/m3 | 592.1 ± 77 mPa·s | 874.9 ± 17 kg/m3 | 434.7 ± 56 mPa·s | 871.8 ± 17 kg/m3 | 324.9 ± 42 mPa·s | 868.8 ± 17 kg/m3 | 246.3 ± 32 mPa·s | 865.8 ± 17 kg/m3 | viscosity (343.15 K): 189.2 ± 24 mPa·s; mass density (343.15 K): 862.8 ± 17 kg/m3; viscosity (348.15 K): 147.4 ± 19 mPa·s; mass density (348.15 K): 859.8 ± 17 kg/m3; viscosity (353.15 K): 116.1 ± 15 mPa·s; mass density (353.15 K): 856.8 ± 17 kg/m3; viscosity (358.15 K): 92.4 ± 12 mPa·s; mass density (358.15 K): 853.9 ± 17 kg/m3; viscosity (363.15 K): 74.1 ± 9.4 mPa·s; mass density (363.15 K): 850.9 ± 17 kg/m3; Glass transition temperature: -76.6 ± 1 °C
